{
  "source": "ChEMBL document CHEMBL1146429",
  "about": "“Stellettamide B, a new indolizidine alkaloid from a sponge of the genus Stelletta” (1997)",
  "key": {"[1]": {"test": "Induction of cleavage of rRNA at 50 ug/mL"}, "[2]": {"test": "Induction of cleavage of mRNA at 50 ug/mL"}, "Candida albicans": {"system": "Candida albicans", "test": "Antimicrobial activity against Candida albicans at 25 ug/mL by paper-disk method", "type": "functional", "settings": "read-out: IZ"}},
  "note": "Active and inactive are the calls of the source. The rule behind the calls is not given here.",
  "data": [
    {"smiles": "CC(C)=CCC[C@@H](C)/C=C/C=C(\\C)C(=O)NC(=N)NCCCCNC(=N)N", "note": "[STELLETTADINE A]", "values": [
      {"measurement": "Activity", "setting": "[1]", "result": "Active"},
      {"measurement": "Activity", "setting": "[2]", "result": "Active"},
      {"measurement": "zone of inhibition at 25 µg/mL", "setting": "Candida albicans", "result": 9, "unit": "mm"}
    ]},
    {"smiles": "CC(C)=CCC[C@@H](C)/C=C/C=C(\\C)C(=O)NC[C@@H]1CC[N+]2(C)CCCC[C@H]12", "note": "(stereo partly specified) [STELLETTAMIDE B]", "values": [
      {"measurement": "Activity", "setting": "[1]", "result": "Active"},
      {"measurement": "Activity", "setting": "[2]", "result": "Active"},
      {"measurement": "zone of inhibition at 25 µg/mL", "setting": "Candida albicans", "result": 4, "unit": "mm"}
    ]}
  ]
}
